Results as given in ChEMBL document CHEMBL1141395, “2-(S)-phenethylaminothiazolones as potent, orally efficacious inhibitors of 11beta-hydroxysteriod dehydrogenase type 1” (J Med Chem, 2007).

Legend:
[1] = molecular target: T1, 11-beta-hydroxysteroid dehydrogenase 1 (Homo sapiens, UniProt P28845)
Description: Displacement of [3H]cortisone from human recombinant 11beta-HSD1 by SPA

[2] = molecular target: T1, 11-beta-hydroxysteroid dehydrogenase 1; remark: listed apart in the source
Description: Inhibition of human 11beta-HSD1 over expressed in CHO cells by whole cell assay

[3] = Volume of distribution in Sprague-Dawley rat at 2 mg/kg, iv; format: ADME, organism-based; parameters: dose 2 mg/kg, route intravenous; settings: in vivo, read-out: Vss
[4] = Clearance in Sprague-Dawley rat at 2 mg/kg, iv; format: ADME, organism-based; parameters: dose 2 mg/kg, route intravenous; settings: in vivo
[5] = Oral bioavailability in Sprague-Dawley rat at 10 mg/kg, po; format: ADME, organism-based; settings: in vivo
[6] = Cmax in Sprague-Dawley rat at 10 mg/kg, po; format: ADME, organism-based; parameters: dose 10 mg/kg, route oral; settings: in vivo
Glucocorticoid receptor = molecular target: T2, Glucocorticoid receptor (Homo sapiens, UniProt P04150); experiment: Inhibition of glucocorticoid receptor
T2 sequence (P04150 whole entry): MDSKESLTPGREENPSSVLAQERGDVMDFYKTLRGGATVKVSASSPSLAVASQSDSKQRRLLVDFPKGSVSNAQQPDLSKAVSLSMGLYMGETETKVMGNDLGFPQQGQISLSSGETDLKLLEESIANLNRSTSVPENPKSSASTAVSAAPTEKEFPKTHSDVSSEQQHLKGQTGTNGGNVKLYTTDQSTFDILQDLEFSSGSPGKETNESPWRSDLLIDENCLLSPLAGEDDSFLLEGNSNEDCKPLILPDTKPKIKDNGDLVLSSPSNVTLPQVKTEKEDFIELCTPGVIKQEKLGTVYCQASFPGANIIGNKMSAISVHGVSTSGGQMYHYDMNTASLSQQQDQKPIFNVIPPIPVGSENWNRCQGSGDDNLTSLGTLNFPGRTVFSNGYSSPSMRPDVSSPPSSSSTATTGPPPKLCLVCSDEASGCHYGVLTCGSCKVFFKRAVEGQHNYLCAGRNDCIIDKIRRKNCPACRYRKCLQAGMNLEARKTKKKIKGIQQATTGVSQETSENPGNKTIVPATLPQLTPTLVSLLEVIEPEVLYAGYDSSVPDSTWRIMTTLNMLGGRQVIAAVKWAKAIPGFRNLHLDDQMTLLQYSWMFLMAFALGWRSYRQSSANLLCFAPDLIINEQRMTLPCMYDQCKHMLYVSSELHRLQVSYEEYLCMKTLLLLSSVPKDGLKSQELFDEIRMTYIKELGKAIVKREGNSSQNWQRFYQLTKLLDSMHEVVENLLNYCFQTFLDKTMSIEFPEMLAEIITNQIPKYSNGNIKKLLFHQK

[7] = molecular target: 11-beta-hydroxysteroid dehydrogenase 1 (Mus musculus) (UniProt P50172); experiment: Reduction of 11beta-HSD1 activity in C57/B16 mouse at 30 mg/kg, po after 2 hrs; format: organism-based; parameters: dose 30 mg/kg; scale not given: the % may be the effect or the level left
[8] = molecular target: 11-beta-hydroxysteroid dehydrogenase type 2 (Homo sapiens, UniProt P80365); experiment: Inhibition of human 11beta-HSD2
[9] = Drug level in C57/B16 mouse plasma at 30 mg/kg, po after 2 hrs; format: ADME, organism-based; parameters: dose 30 mg/kg, route oral
[10] = Drug level in adipose in C57/B16 mouse at 30 mg/kg, po after 2 hrs; format: ADME, organism-based; parameters: dose 30 mg/kg, route oral; settings: read-out: Drug uptake
[11] = molecular target: 11-beta-hydroxysteroid dehydrogenase 1 (Mus musculus) (UniProt P50172); experiment: Reduction of 11beta-HSD1 activity in C57/B16 mouse at 30 mg/kg, po after 6 hrs; format: organism-based; parameters: dose 30 mg/kg; scale not given: the % may be the effect or the level left
[12] = Drug level in C57/B16 mouse plasma at 30 mg/kg, po after 6 hrs; format: ADME, organism-based; parameters: dose 30 mg/kg, route oral
[13] = molecular target: 11-beta-hydroxysteroid dehydrogenase 1 (Mus musculus, UniProt P50172); experiment: Inhibition of murine 11beta-HSD1
[14] = Drug level in adipose in C57/B16 mouse at 30 mg/kg, po after 6 hrs; format: ADME, organism-based; parameters: dose 30 mg/kg, route oral; settings: read-out: Drug uptake

T1 sequence (P28845 whole entry): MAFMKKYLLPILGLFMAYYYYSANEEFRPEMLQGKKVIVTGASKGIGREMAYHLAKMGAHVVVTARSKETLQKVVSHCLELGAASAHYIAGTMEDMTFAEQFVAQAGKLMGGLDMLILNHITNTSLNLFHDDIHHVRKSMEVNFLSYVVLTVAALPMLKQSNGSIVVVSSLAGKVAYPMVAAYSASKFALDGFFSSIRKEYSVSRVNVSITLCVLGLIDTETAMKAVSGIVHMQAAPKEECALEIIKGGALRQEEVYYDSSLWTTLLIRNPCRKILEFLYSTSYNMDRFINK
11-beta-hydroxysteroid dehydrogenase 1 (Mus musculus), sequence (P50172 whole entry, looked up): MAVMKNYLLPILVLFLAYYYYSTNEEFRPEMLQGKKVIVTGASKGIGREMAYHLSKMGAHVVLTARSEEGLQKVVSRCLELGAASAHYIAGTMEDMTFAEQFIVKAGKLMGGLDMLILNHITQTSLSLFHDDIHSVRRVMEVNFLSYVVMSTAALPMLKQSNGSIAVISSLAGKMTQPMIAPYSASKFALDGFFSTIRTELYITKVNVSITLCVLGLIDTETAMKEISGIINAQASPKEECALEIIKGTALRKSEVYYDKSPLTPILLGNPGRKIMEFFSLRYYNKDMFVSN
11-beta-hydroxysteroid dehydrogenase 1 (Mus musculus, UniProt P50172), sequence (P50172 whole entry): as the sequence (P50172 whole entry, looked up) above
11-beta-hydroxysteroid dehydrogenase type 2, sequence (P80365 whole entry, looked up): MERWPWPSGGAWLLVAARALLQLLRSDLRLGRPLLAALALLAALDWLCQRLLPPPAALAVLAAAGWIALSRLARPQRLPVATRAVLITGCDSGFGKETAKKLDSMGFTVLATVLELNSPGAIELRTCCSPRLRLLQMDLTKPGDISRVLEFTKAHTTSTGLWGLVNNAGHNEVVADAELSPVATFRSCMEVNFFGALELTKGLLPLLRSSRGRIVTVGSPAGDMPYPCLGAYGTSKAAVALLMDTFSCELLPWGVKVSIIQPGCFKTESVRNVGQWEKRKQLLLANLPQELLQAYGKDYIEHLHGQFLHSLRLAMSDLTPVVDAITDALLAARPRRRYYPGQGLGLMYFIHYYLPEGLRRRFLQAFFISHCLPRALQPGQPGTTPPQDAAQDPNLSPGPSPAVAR

Compound | Ki [1] | IC50 [2] | Vd [3] | clearance [4] | bioavailability [5] | Cmax [6] | IC50 (Glucocorticoid receptor) | Activity [7] | IC50 [8] | concentration at 2 h [9] | concentration at 2 h [10] | Activity [11] | concentration at 6 h [12] | Ki [13] | concentration at 6 h [14]
CC(C)C1(C)SC(NCc2ccccc2)=NC1=O (configuration not stated) | 0.065 µM | 0.053 µM |  |  |  |  |  |  |  |  |  |  |  |  | 
C[C@H](NC1=NC(=O)C(C)(C(C)(C)F)S1)c1ccccc1F (some centres not stated) |  |  | 1.66 L/kg | 14.8 mL/min/kg | 47% | 1080 ng/mL |  |  |  |  |  |  |  |  | 
C[C@H](NC1=NC(=O)C(C)(C(F)(F)F)S1)c1ccccc1F (some centres not stated) | 0.02 µM | 0.056 µM | 2.98 L/kg | 8.35 mL/min/kg | 55% | 1040 ng/mL |  |  |  |  |  |  |  |  | 
CC(C)[C@]1(C)SC(N[C@@H](C)c2ccccc2F)=NC1=O |  |  | 5.73 L/kg | 42.8 mL/min/kg | 20% | 176 ng/mL |  |  |  |  |  |  |  |  | 
C[C@H](NC1=NC(=O)[C@](C)(C(F)(F)F)S1)c1ccccc1F | 0.048 µM | 0.096 µM | 1.66 L/kg | 9.6 mL/min/kg | 50% | 1230 ng/mL |  |  |  |  |  |  |  |  | 
C[C@H](NC1=NC(=O)[C@@](C)(C(F)(F)F)S1)c1ccccc1F | 0.022 µM | 0.033 µM | 1.2 L/kg | 3.13 mL/min/kg | 75% | 4630 ng/mL | > 50 µM | 88% | > 10 µM | 55 µM | 234 µM | 91% | 35 µM | 0.13 µM | 113 µM
